In patent US9073892B2, “Indazolyl triazol derivatives” (Merck Serono S.A., priority 2010, dated 2015):

Legend:
[1] = system: IL1β-induced IL8 release in THP1 cells; test: IRAK IL8 secretion functional assay; assay type: cell-based; conditions: Homo sapiens; THP-1 cells, IL1β 100 ng/ml overnight, IL8 by HTRF; read-out: IC50, Secretion THP-1/IL-β induced IL8 release
Text: IRAK IL8 Secretion Functional Assay:
THP1 cells are human monocytes derived from acute monocytic leukemia. IL1β receptor expressed on the surface membrane of THP1 cells induced IL8 release. IRAKs are kinase signaling downstream of TLRs and TNF, IL-18, IL-33 and IL-1 receptors.
In cells, IRAK4 is upstream of IRAK1.
The Human IL8 Kit, provided by CysBio International based in Bagnols/Cèze FR, allows for the quantitative determination of IL-8 in cell-culture supernatants.
Anti-cytokine IL8 antibodies are respectively labeled with europium Cryptate and XL665. Upon their binding to IL-8 molecules, the two antibodies come into close proximity, allowing FRET (Fluorescence Resonance Energy Transfer) to occur. This FRET increases proportionally to IL-8 concentrations and be converted in IL8 pg amounts.
THP-1 cells are seeded on Day 1 in 384 well plate with RPMI 1640 at a density of 30 000 cells/well. Compounds 4×/2% DMSO (range of concentrations from 20 μM to 1 nM) and IL1β 4× at 100 ng/ml final are added to cells overnight at 37° C., 5% CO2. Measurement of IL-8 secretion is done by mixing on Day2 10 μl of supernatant with 10 μl of a mix solution of europium Cryptate and XL665 (v:v) as described by supplier.
HTRF (homogeneous time resolved fluorescence) signal is measured after 3 hours incubation time at 30° C. with a BMG Pherastar reader or equivalent.

IRAK1/4 human = system: T1, IRAK1/4 human; test: IRAK1/4 phosphorylation IC50 (enzymatic assay, table 2); assay type: biochemical; conditions: human IRAK1/4 phosphorylation
T1 construct: fused on or other part: His tag and TEV cleavage site at the N-terminus
Procedure, shortened: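 Human IRAK-1 or IRAK-4, each carrying a His-TEV tag, was incubated with ATP and compounds in DMSO ranging from 20 µM to 1 nM in 384-well plates, and IRAK-4 reactions also contained STK1-biotin peptide. Reactions ran in 50 mM Hepes pH7.0 with MgCl2, DTT, EGTA and BSA for 2 or 3 hours, with 2% DMSO controls. Inhibition is given as IC50.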

Row | Compound | IC50 [1] [nM] | IC50 (IRAK1/4 human) [nM]
1 | CN(C)C1CCN(C(=O)c2ccc(-n3cc(-c4n[nH]c5ccccc45)nn3)cc2)C1 (stereo not shown) [Example 27, 1-{4-[4-(1H-indazol-3-yl)-1H-1,2,3-triazol-1-yl]benzoyl}-N,N-dimethylpyrrolidin-3-amine] | 100 to 1000 | 100 to 1000
2 | O=C(c1ccc(-n2cc(-c3n[nH]c4ccccc34)nn2)cc1)N1CCC(CO)CC1 [Example 28, (1-{4-[4-(1H-indazol-3-yl)-1H-1,2,3-triazol-1-yl]benzoyl}piperidin-4-yl)methanol] | 100 to 1000 | 100 to 1000
3 | CN(C)CC1CCCN(C(=O)c2ccc(-n3cc(-c4n[nH]c5ccccc45)nn3)cc2)C1 (stereo not shown) [Example 29, 1-(1-{4-[4-(1H-indazol-3-yl)-1H-1,2,3-triazol-1-yl]benzoyl}piperidin-3-yl)-N,N-dimethylmethanamine] | 100 to 1000 | 100 to 1000
4 | CN1CCC(NC(=O)c2ccc(-n3cc(-c4n[nH]c5ccccc45)nn3)cc2)C1=O (stereo not shown) [Example 31, 4-[4-(1H-indazol-3-yl)-1H-1,2,3-triazol-1-yl]-N-(1-methyl-2-oxopyrrolidin-3-yl)benzamide] | 100 to 1000 | 100 to 1000
5 | Cc1ccc2[nH]nc(-c3cn(-c4ccc(C(=O)N5CCOCC5)cc4)nn3)c2c1 [Example 32, 5-methyl-3-{1-[4-(morpholin-4-ylcarbonyl)phenyl]-1H-1,2,3-triazol-4-yl}-1H-indazole] | 100 to 1000 | 100 to 1000
6 | COc1cc(-n2cc(-c3n[nH]c4ccccc34)nn2)ccc1C(=O)N1CCOCC1 [Example 34, 3-{1-[3-methoxy-4-(morpholin-4-ylcarbonyl)phenyl]-1H-1,2,3-triazol-4-yl}-1H-indazole] | 100 to 1000 | 1000 to 5000
7 | O=C(c1ccc(-n2cc(-c3n[nH]c4ccccc34)nn2)cc1)N1CCCC1 [Example 35, 3-{1-[4-(pyrrolidin-1-ylcarbonyl)phenyl]-1H-1,2,3-triazol-4-yl}-1H-indazole] | 100 to 1000 | < 100
8 | CN(C)C(=O)c1ccc(-n2cc(-c3n[nH]c4ccccc34)nn2)cc1 [Example 36, 4-[4-(1H-indazol-3-yl)-1H-1,2,3-triazol-1-yl]-N,N-dimethylbenzamide] | 100 to 1000 | 100 to 1000
9 | COCC1CCN(C(=O)c2ccc(-n3cc(-c4n[nH]c5ccccc45)nn3)cc2)CC1 [Example 37, 3-[1-(4-{[4-(methoxymethyl)piperidin-1-yl]carbonyl}phenyl)-1H-1,2,3-triazol-4-yl]-1H-indazole] | 100 to 1000 | 100 to 1000
10 | O=C(c1ccc(-n2cc(-c3n[nH]c4ccccc34)nn2)cc1)N1CCCCC1 [Example 38, 3-{1-[4-(piperidin-1-ylcarbonyl)phenyl]-1H-1,2,3-triazol-4-yl}-1H-indazole] | 100 to 1000 | 1000 to 5000
11 | CC(=O)N1CCN(C(=O)c2ccc(-n3cc(-c4n[nH]c5ccccc45)nn3)cc2)CC1 [Example 39, 3-(1-{4-[(4-acetylpiperazin-1-yl)carbonyl]phenyl}-1H-1,2,3-triazol-4-yl)-1H-indazole] | 100 to 1000 | 100 to 1000
12 | O=C(NCCCN1CCCC1)c1ccc(-n2cc(-c3n[nH]c4ccccc34)nn2)cc1 [Example 40, 4-[4-(1H-indazol-3-yl)-1H-1,2,3-triazol-1-yl]-N-(3-pyrrolidin-1-ylpropyl)benzamide] | 100 to 1000 | 100 to 1000
13 | CCN(CC)CCCNC(=O)c1ccc(-n2cc(-c3n[nH]c4ccccc34)nn2)cc1 [Example 42, N-[3-(diethylamino)propyl]-4-[4-(1H-indazol-3-yl)-1H-1,2,3-triazol-1-yl]benzamide] | 100 to 1000 | 100 to 1000
14 | CN(CCc1ccncc1)C(=O)c1ccc(-n2cc(-c3n[nH]c4ccccc34)nn2)cc1 [Example 43, 4-[4-(1H-indazol-3-yl)-1H-1,2,3-triazol-1-yl]-N-methyl-N-(2-pyridin-4-ylethyl)benzamide] | 100 to 1000 | 100 to 1000
15 | O=C(NCCN1CCCCC1)c1ccc(-n2cc(-c3n[nH]c4ccccc34)nn2)cc1 [Example 44, 4-[4-(1H-indazol-3-yl)-1H-1,2,3-triazol-1-yl]-N-(2-piperidin-1-ylethyl)benzamide] | 100 to 1000 | 100 to 1000
16 | CN1CCCN(C(=O)c2ccc(-n3cc(-c4n[nH]c5ccccc45)nn3)cc2)CC1 [Example 48, 3-(1-{4-[(4-methyl-1,4-diazepan-1-yl)carbonyl]phenyl}-1H-1,2,3-triazol-4-yl)-1H-indazole] | 100 to 1000 | 100 to 1000

Row | Compound | IC50 [1] [nM] | IC50 (IRAK1/4 human) [nM]
17 | CCNC(=O)c1ccc(-n2cc(-c3n[nH]c4ccccc34)nn2)cc1 [Example 49, N-ethyl-4-[4-(1H-indazol-3-yl)-1H-1,2,3-triazol-1-yl]benzamide] | 100 to 1000 | 100 to 1000
18 | COCCNC(=O)c1ccc(-n2cc(-c3n[nH]c4ccccc34)nn2)cc1 [Example 50, 4-[4-(1H-indazol-3-yl)-1H-1,2,3-triazol-1-yl]-N-(2-methoxyethyl)benzamide] | 100 to 1000 | 100 to 1000
19 | O=C(NCc1ccco1)c1ccc(-n2cc(-c3n[nH]c4ccccc34)nn2)cc1 [Example 51, N-(2-furylmethyl)-4-[4-(1H-indazol-3-yl)-1H-1,2,3-triazol-1-yl]benzamide] | 1000 to 5000 | 100 to 1000
20 | CCN1CCN(C(=O)c2ccc(-n3cc(-c4n[nH]c5ccccc45)nn3)cc2)CC1 [Example 52, 3-(1-{4-[(4-ethylpiperazin-1-yl)carbonyl]phenyl)-1H-1,2,3-triazol-4-yl)-1H-indazole] | 100 to 1000 | 100 to 1000
21 | O=C(NC1CC1)c1ccc(-n2cc(-c3n[nH]c4ccccc34)nn2)cc1 [Example 53, N-cyclopropyl-4-[4-(1H-indazol-3-yl)-1H-1,2,3-triazol-1-yl]benzamide] | 100 to 1000 | 100 to 1000
22 | CNC(=O)c1ccc(-n2cc(-c3n[nH]c4ccccc34)nn2)cc1 [Example 54, 4-[4-(1H-indazol-3-yl)-1H-1,2,3-triazol-1-yl]-N-methylbenzamide] | 100 to 1000 | 100 to 1000
23 | O=C(NCC1CC1)c1ccc(-n2cc(-c3n[nH]c4ccccc34)nn2)cc1 [Example 55] | 100 to 1000 | 100 to 1000
24 | CCN1CCN(C(=O)c2cccc(-n3cc(-c4n[nH]c5ccccc45)nn3)c2)CC1 [Example 60, 3-(1-{3-[(4-ethylpiperazin-1-yl)carbonyl]phenyl}-1H-1,2,3-triazol-4-yl)-1H-indazole] | 1000 to 5000 | 1000 to 5000
25 | O=C(c1ccc(-n2cc(-c3n[nH]c4ccccc34)nn2)cc1)N1CCC(O)CC1 [Example 71, 1-{4-[4(1H-indazol-3-yl)-1H-1,2,3-triazol-1-yl]benzoyl}piperidin-ol] | 100 to 1000 | 100 to 1000
26 | CN(C)C1CCN(C(=O)c2ccc(-n3cc(-c4n[nH]c5ccccc45)nn3)cc2)CC1 [Example 72, 1-{4-[4-(1H-indazol-3-yl)-1H-1,2,3-triazol-1-yl]benzoyl}-N,N-dimethylpiperidin-4-amine] | < 100 | 100 to 1000
27 | O=C(c1ccc(-n2cc(-c3n[nH]c4ccccc34)nn2)cc1)N1CCCC(C(=O)N2CCCC2)C1 (stereo not shown) [Example 73, 3-[1-(4-{[3-(pyrrolidin-1-ylcarbonyl)piperidin-1-yl]carbonyl}phenyl)-1H-1,2,3-triazol-4-yl]-1H-indazole] | < 100 | 100 to 1000
28 | O=C(c1ccc(-n2cc(-c3n[nH]c4ccccc34)nn2)cc1)N1CCCC(CN2CCOCC2)C1 (stereo not shown) [Example 74] | 100 to 1000 | 100 to 1000
29 | O=C1CCCN1CC1CCCN(C(=O)c2ccc(-n3cc(-c4n[nH]c5ccccc45)nn3)cc2)C1 (stereo not shown) [Example 75, 1-[(1-{4-[4-(1H-indazol-3-yl)-1H-1,2,3-triazol-1-yl]benzoyl}piperidin-3-yl)methyl]pyrrolidin-2] | 100 to 1000 | 100 to 1000
30 | CN1CCCC2(CCCN(C(=O)c3ccc(-n4cc(-c5n[nH]c6ccccc56)nn4)cc3)C2)C1 (stereo not shown) [Example 76, 2-{4-[4-(1H-indazol-3-yl)-1H-1,2,3-triazol-1-yl]benzoyl}-8-methyl-2,8-diazaspiro[5.5]undecane] | < 100 | < 100
31 | CN1CCCC(CNC(=O)c2ccc(-n3cc(-c4n[nH]c5ccccc45)nn3)cc2)C1 (stereo not shown) [Example 77, 4-[4-(1H-indazol-3-yl)-1H-1,2,3-triazol-1-yl]-N-[(1-methylpiperidin-3-yl)methyl]benzamide] | 100 to 1000 | 100 to 1000
32 | CN1CCN(C(=O)Cc2cccc(-n3cc(-c4n[nH]c5ccccc45)nn3)c2)CC1 [Example 79, 3-(1-{3-[2-(4-methylpiperazin-1-yl)-2-oxoethyl]phenyl}-1H-1,2,3-triazol-4-yl)-1H-indazole] | 1000 to 5000 | 1000 to 5000
